Measurements published in US20050042603A1, “Compositions and methods for peptide-assisted transfection” (Allele Biotechnology & Pharmaceuticals, Inc., priority 2003, published 2005).
Ends that are not written are not given here.

Legend:
293T cells = type: cell-based, human; conditions: for Effect of other salts on enhancing TAN-mediated transfection: salt in place of CaCl2
Experimental: 293T (human embryonic kidney) cells were grown in Dulbecco's modified Eagle's medium (Life Technologies, Rockville, Md.) supplemented with 10% FBS, 100 units/ml penicillin, and 100 μg/ml of streptomycin in a 37° C. CO2 incubator. Cells were regularly passed to maintain growth. Twenty-four hours before transfection, cells were trypsinized and plated on 96-well plates (100 μl/well) in the above medium without the antibiotics. Ten μl of fraction 2 was added to 293T cells at 15% confluency in serum-containing medium. Fluorescence microscopy was performed at 12 hours, after changing medium and washing cells.
TAN (SEQ ID NO:3) at 0.1 to 5 μg per 96-well transfection was mixed with 0.1 μg plasmid pEGFP-N1 (BD ClonTech) for 5 min, diluted in 40 μl DMEM, then added to cells. Fluorescence microscopy was performed at different time points to observe the expression of GFP as the indication of transfection event. Note that by using GFP as reporter, the total transfection efficiency was underestimated due to certain percentage of cells would not express the GFP to levels high enough for detection.
Different concentrations of TAN (SEQ ID NO:3) and CaCl2 were tested in combination for transfection. TAT (SEQ ID NO:1) and another peptide, HT 31 (a widely used PKA-anchor interaction interruption peptide) were included as controls. Generally, experiments were performed similarly as in the above examples except that peptide was added to DNA first, followed by addition of CaCl2.

[1] = system: monkey kidney cell Vero-E6; assay: Peptide as additive to TransIt-Oligo reagent transfection of pEFGP-N1; type: cell-based; conditions: 0.1 μg plasmid, 96-well, about 30% confluency, increasing amount of peptide
[2] = system: approximately 300 bp PCR product linear dsDNA; assay: Band-shift assay with short linear dsDNA (siRNA-expressing PCR product); type: binding; conditions: 30 min reaction, 2% gel
Experimental: In order to examine whether TAN could directly interact with the transfected plasmid DNA as predicted by the transfection results, band-shift assays were performed. Different amount of TAN (SEQ ID NO:3) dissolved in H2O was mixed with 0.5 μg of plasmid with or without 15 mM CaCl2, incubated for 5 min, followed by addition of 2 μl of DNA loading dye (30% glycerol), and loaded to 0.7% agarose gel. The EB-containing gel was run for about 45 min at 120 volts before the picture taken under UV lights.
The ability of TAN (SEQ ID NO:3) to bind short linear dsDNA also was examined. The DNA tested was an approximately 300 bp PCR product that is used to express small interfering RNAs (siRNAs). The experiments were done similarly to those described in Example 6, except that the reactions were allowed to proceed to 30 min and the gel was 2%. […] This difference may be due to a difference in the relative amount of DNA in each type of complex or to the structural constrains of linear versus circular DNA. […] Because these cassettes express siRNAs under the control of Pol III promoter as apposed to Pol II in GFP expression unit, it is therefore likely that peptide assisted transfection (PAT) is independent of promoter used, as expected.

[Cl-].[Na+] [NaCl]
Effect of other salts on enhancing TAN-mediated transfection (293T cells): showed no effect

YGRKKRRQRRR [TAT]
Effect of control peptide together with CaCl2 (293T cells; control peptides with CaCl2 and DNA): caused cells to lyse
Enhancement of TransIt-Oligo transfection by peptide [1]: did not show such enhancement
Behaviour at slightly increased concentration [2]: quickly precipitated DNA
Binding to linear dsDNA (band shift) [2]: did not bind at the lower concentrations

YGRKKRRQRRRGQRNPNKKWS [TAN]
Toxicity to treated cells (growth arrest, cell death) (293T cells; peptide/Ca++ transfection): did not show arrest of growth or cell death

[Cl-].[Cl-].[Mg+2] [MgCl2]
Effect of other salts on enhancing TAN-mediated transfection (293T cells): showed no effect
